Test results as given in US20120172369A1 (priority 2009, published 2012).

Target: T1, human DGAT1 enzyme (Homo sapiens, UniProt O75907)
T1 construct: made in house; host or cells: Sf9 insect cells (microsomal membranes)
T1 sequence (O75907 1-488): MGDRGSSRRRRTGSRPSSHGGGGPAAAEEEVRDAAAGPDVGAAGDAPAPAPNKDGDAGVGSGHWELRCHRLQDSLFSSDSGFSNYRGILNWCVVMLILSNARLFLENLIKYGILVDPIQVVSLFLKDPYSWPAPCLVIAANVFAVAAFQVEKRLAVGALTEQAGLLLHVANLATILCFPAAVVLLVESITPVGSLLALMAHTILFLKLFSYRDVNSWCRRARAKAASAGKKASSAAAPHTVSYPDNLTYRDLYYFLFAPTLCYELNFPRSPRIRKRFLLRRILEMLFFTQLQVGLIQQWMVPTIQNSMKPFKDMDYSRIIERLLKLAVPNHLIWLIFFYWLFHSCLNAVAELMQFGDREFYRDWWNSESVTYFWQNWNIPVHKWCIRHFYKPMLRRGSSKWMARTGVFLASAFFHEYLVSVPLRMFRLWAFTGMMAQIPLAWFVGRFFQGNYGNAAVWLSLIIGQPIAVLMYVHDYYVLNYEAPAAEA
Test: in vitro DGAT1 inhibition assay (microsomes, [14C]-palmitoyl-CoA, SPA beads)
Format: biochemical
Details: human DGAT1 expressed in Sf9 insect cells, microsomes; 2 hours at room temperature; read-out: IC50
Method: The in vitro assay to identify DGAT1 inhibitors uses human DGAT1 enzyme expressed in Sf9 insect cells prepared as microsomes. The reaction was initiated by the addition of the combined substrates 1,2-dioleoyl-sn-glycerol and [^14C]-palmitoyl-Co A and incubated with test compounds and microsomal membranes for 2 hours at room temperature. The assay was stopped by adding 0.5 mg wheat germ agglutinin beads in assay buffer with 1% Brij-35 and 1% 3-cholamidopropyldimethyl-ammonio-1-propane sulfonate. Plates were sealed with TopSeal and incubated for 18 hours to allow the radioactive triglyceride product to come into proximity with the bead. Plates were read on a TopCount instrument.
Percent inhibition was calculated as the percent of (test compound inhibition minus non-specific binding) relative to (total binding minus non-specific binding). IC50 values were determined by curve fitting the data to a Sigmoidal dose-response in GraphPad Prism utilizing the following equation:
Y=A+(B−A)/(1+10̂((Log IC50−X))),
where A and B are the bottom and top of the curve (highest and lowest inhibition), respectively, and X is the logarithm of concentration.

Compound | IC50 [nM]
COc1ccccc1-c1ccc2oc(C(=O)Nc3ccc(N4CCN(C(=O)Nc5ccccc5F)CC4)nc3)c(C)c2c1 [Example 69, N-(2-fluorophenyl)4-(5-(5-(2-methoxyphenyl)-3-methylbenzofuran-2-carboxamido)pyridin-2-yl)piperazine-1-carboxamide] | 204
Cc1c(C(=O)Nc2ccc(N3CCN(C(=O)Nc4ccccc4C(=O)O)CC3)nc2)oc2ccc(-c3ccc(F)cc3)cc12 [Example 36, 2-(4-(5-(5-(4-fluorophenyl)-3-methylbenzofuran-2-carboxamido)pyridin-2-yl)piperazine-1-carboxamido)benzoic acid] | 90
Cc1c(C(=O)Nc2ccc(N3CCN(C(=O)Nc4ccccc4C(=O)O)CC3)nc2)oc2ccc(-c3ccccc3F)cc12 [Example 24, 2-(4-(5-(5-(2-fluorophenyl)-3-methylbenzofuran-2-carboxamido)pyridin-2-yl)piperazine-1-carboxamido)benzoic acid] | 59
CCOC(=O)c1ccccc1NC(=O)N1CCN(c2ccc(NC(=O)c3oc4ccc(-c5ccccc5F)cc4c3C)cn2)CC1 [Example 21, ethyl 2-(4-(5-(5-(2-fluorophenyl)-3-methylbenzofuran-2-carboxamido)pyridin-2-yl)piperazine-1-carboxamido)benzoate] | 566
Cc1c(C(=O)Nc2ccc(N3CCC(COc4cccc(C(=O)O)c4)CC3)nc2)oc2ccc(-c3cccc(F)c3)cc12 [Example 33, 3-((1-(5-(5-(3-fluorophenyl)-3-methylbenzofuran-2-carboxamido)pyridin-2-yl)piperidin-4-yl)methoxy)benzoic acid] | 93
Cc1c(C(=O)Nc2ccc(-c3ccc(OCC(C)(C)C(=O)O)nc3)cc2)oc2ccc(-c3ccccc3)cc12 [Example 58, 2,2-dim ethyl-3-(5-(4-(3-methyl-5-phenylbenzofuran-2-carboxamido)phenyl)pyridin-2-yloxy)propanoic acid] | 13
Cc1c(C(=O)Nc2ccc(N3CCC(COc4cccc(C(=O)O)c4)CC3)nc2)oc2ccc(Cc3ccccc3)cc12 [Example 93, 3-((1-(5-(5-benzyl-3-methylbenzofuran-2-carboxamido)pyridin-2-yl)piperidin-4-yl)methoxy)benzoic acid] | 56
Cc1c(C(=O)Nc2ccc(-c3ccc(OC4CCC(C(=O)O)CC4)nc3)nc2)oc2ccc(-c3ccccc3)cc12 (stereo not shown) [Example 95, 4-(5-(3-methyl-5-phenylbenzofuran-2-carboxamido)-2,3′-bipyridin-6′-yloxy)cyclohexanecarboxylic acid] | 6
Cc1ccc2c(C)c(C(=O)Nc3ccc(N4CCC(OCc5cccc(C(=O)O)c5)CC4)nc3)oc2c1C [Example 87, 3-((1-(5-(3,6,7-trimethylbenzofuran-2-carboxamido)pyridin-2-yl)piperidin-4-yloxy)methyl)benzoic acid] | 22
Cc1c(C(=O)Nc2ccc(N3CCC(OCc4cccc(C(=O)O)c4)CC3)nc2)oc2ccc(-c3ccccc3F)cc12 [Example 25, 3-((1-(5-(5-(2-fluorophenyl)-3-methylbenzofuran-2-carboxamido)pyridin-2-yl)piperidin-4-yloxy)methyl)benzoic acid] | 93
Cc1c(C(=O)Nc2ccc(N3CCN(C(=O)Nc4ccccc4F)CC3)nc2)sc2ccc(-c3ccccc3)cc12 [Example 46, N-(2-fluorophenyl)-4-(5-(3-methyl-5-phenylbenzo[b]thiophene-2-carboxamido)pyridin-2-yl)piperazine-1-carboxamide] | 84
COc1ccccc1-c1ccc2oc(C(=O)Nc3ccc(N4CCN(C(=O)Nc5ccccc5C(=O)O)CC4)nc3)c(C)c2c1 [Example 70] | 1090
Cc1c(C(=O)Nc2ccc(N3CCN(C(=O)Nc4ccccc4C(=O)O)CC3)nc2)oc2ccc(-c3cccc(F)c3)cc12 [Example 31, 2-(4-(5-(5-(3-fluorophenyl)-3-methylbenzofuran-2-carboxamido)pyridin-2-yl)piperazine-1-carboxamido)benzoic acid] | 84

Next, values leading:

IC50 [nM] | Compound
104 | Cc1c(C(=O)Nc2ccc(N3CCN(C(=O)Nc4ccccc4F)CC3)nc2)oc2ccc(-c3ncco3)cc12 [Example 82, N-(2-fluorophenyl)-4-(5-(3-methyl-5-(oxazol-2-yl)benzofuran-2-carboxamido)pyridin-2-yl)piperazine-1-carboxamide]
59 | Cc1c(C(=O)Nc2ccc(N3CCC(COc4cccc(C(=O)O)c4)CC3)nc2)oc2ccc(-c3ccccc3F)cc12 [Example 26, 3-((1-(5-(5-(2-fluorophenyl)-3-methylbenzofuran-2-carboxamido)pyridin-2-yl)piperidin-4-yl)methoxy)benzoic acid]
454 | CCOC(=O)c1ccccc1NC(=O)N1CCN(c2ccc(NC(=O)c3oc4ccc(-c5ccc(OC)cc5)cc4c3C)cn2)CC1 [Example 65, ethyl 2-(4-(5-(5-(4-methoxyphenyl)-3-methylbenzofuran-2-carboxamido)pyridin-2-yl)piperazine-1-carboxamido)benzoate]
1420 | CCOC(=O)c1ccccc1NC(=O)N1CCN(c2ccc(NC(=O)c3oc4ccc(-c5cccc(F)c5)cc4c3C)cn2)CC1 [Example 30, ethyl 2-(4-(5-(5-(3-fluorophenyl)-3-methylbenzofuran-2-carboxamido)pyridin-2-yl)piperazine-1-carboxamido)benzoate]
52 | Cc1c(C(=O)Nc2ccc(N3CCC(COc4cccc(C(=O)O)c4)CC3)nc2)oc2ccc(-c3ccccc3)cc12 [Example 18, 3-((1-(5-(3-methyl-5-phenylbenzofuran-2-carboxamido)pyridin-2-yl)piperidin-4-yl)methoxy)benzoic acid]
65 | COc1ccc(-c2ccc3oc(C(=O)Nc4ccc(N5CCC(OCc6cccc(C(=O)O)c6)CC5)nc4)c(C)c3c2)cc1 [Example 64, 3-((1-(5-(5-(4-methoxyphenyl)-3-methylbenzofuran-2-carboxamido)pyridin-2-yl)piperidin-4-yloxy)methyl)benzoic acid]
600 | Cc1c(C(=O)Nc2ccc(N3CC[C@@H](COc4ccc(C(=O)O)cc4)C3)nc2)oc2ccc(-c3ccccc3)cc12 [Example 80, (R)-4-((1-(5-(3-methyl-5-phenylbenzofuran-2-carboxamido)pyridin-2-yl)pyrrolidin-3-yl)methoxy)benzoic acid]
49 | Cc1c(C(=O)Nc2ccc(N3CCN(C(=O)Nc4ccccc4F)CC3)nc2)oc2c(F)cccc12 [Example 9, 4-(5-(7-fluoro-3-methylbenzofuran-2-carboxamido)pyridin-2-yl)-N-(2-fluorophenyl)piperazine-1-carboxamide]
282 | Cc1c(C(=O)Nc2ccc(N3CCN(C(=O)Nc4ccccc4F)CC3)nc2)oc2cc(-c3ccccc3)ccc12 [Example 13, N-(2-fluorophenyl)-4-(5-(3-methyl-6-phenylbenzofuran-2-carboxamido)pyridin-2-yl)piperazine-1-carboxamide]
38 | COC(=O)c1cccc(COC2CCN(c3ccc(NC(=O)c4oc5ccc(-c6ccc(F)cc6)cc5c4C)cn3)CC2)c1 [Example 35, methyl 3-((1-(5-(5-(4-fluorophenyl)-3-methylbenzofuran-2-carboxamido)pyridin-2-yl)piperidin-4-yloxy)methyl)benzoate]
625 | Cc1c(C(=O)Nc2ccc(N3CCN(C(=O)[C@H](O)c4ccccc4)CC3)nc2)oc2ccccc12 [Example 2, (R)—N-(6-(4-(2-hydroxy-2-phenylacetyl)piperazin-1-yl)pyridin-3-yl)-3-methylbenzofuran-2-carboxamide]
454 | ethyl 2-(4-(5-(5-(4-methoxyphenyl)-3-methylbenzofuran-2-carboxamido)pyridin-2-yl)piperazine-1-carboxamido)benzoate [Example 66]
46 | Cc1c(C(=O)Nc2ccc(N3CCN(C(=O)Cc4c(F)cccc4F)CC3)nc2)oc2ccccc12 [Example 4, N-(6-(4-(2-(2,6-difluorophenyl)acetyl)piperazin-1-yl)pyridin-3-yl)-3-methylbenzofuran-2-carboxamide]
220 | Cc1c(C(=O)Nc2ccc(N3CCN(C(=O)Nc4ccccc4F)CC3)nc2)sc2ccc(-c3cccc(F)c3)cc12 [Example 54, N-(2-fluorophenyl)-4-(5-(5-(3-fluorophenyl)-3-methylbenzo[b]thiophene-2-carboxamido)pyridin-2-yl)piperazine-1-carboxamide]
27 | Cc1c(C(=O)Nc2ccc(N3CCN(C(=O)Nc4ccccc4C(=O)O)CC3)nc2)sc2ccc(-c3ccccc3)cc12 [Example 53, 2-(4-(5-(3-methyl-5-phenylbenzo[b]thiophene-2-carboxamido)pyridin-2-yl)piperazine-1-carboxamido)benzoic acid]
